# Results published in US20060058390A1 (priority 2004, published 2006).
# Where two headings read alike, the source gives them in different places.
# Assays:
# [1] = male, Sprague-Dawley, rat, in vivo, 150 mg/kg
# Experimental: Twenty-six male Sprague-Dawley rats weighing approximately 200 to 300 g were used for the study. The jugular vein of six animals were cannulated and the rest of the animals were used without any further preparation.
# Dosing was conducted on two occasions. […] The drug was prepared in a suspension formulation in accordance with the present invention. The blood samples (approximately 0.5 mL/sample) were collected from each animal at predose, 15, 30 minutes, 1, 2, 4 and 6 hours postdose into microtainer tubes containing lithium heparin as an anticoagulant. Replacement blood was infused into each animal following each blood draw. […] The drug was prepared in a solution formulation. […] Blood samples were collected from each animal via the orbital sinus at predose, 2, 15, 30 minutes, 1, 2, 4 and 6 hours postdose. Each animal was bled twice. The blood was centrifuged immediately and the resulting plasma in tubes was flash frozen in liquid nitrogen and stored at approximately −70° C. until analysis.
# L-Methinione can also be detected under the same HPLC conditions.
# Descriptive pharmacokinetic parameters were determined by standard model independent methods (Gibaldi, M. and Perrier, D. Pharmacokinetics, Second Edition, Marcel Dekker, Inc., New York, 1982) based on the mean plasma concentration-time data. The plasma concentrations were rounded to one decimal place before the calculation. Plasma samples with concentrations below the quantifiable limit (BQL) were assigned values of zero for the calculation of mean plasma concentration.
# The mean plasma concentration-time profiles are depicted in FIG. 2.
# [2] = test system: oxidative stress-induced ototoxicity and nephrotoxicity; conditions: in vivo; cited from earlier work
# [3] = cited from earlier work
smiles,measurement,setting,value
"CSCC[C@H](N)C(=O)O [L-Methionine, L-methionine]",AUC(0-inf) of L-Methionine,[1]; iv,326.0 µg·h/mL
same,Cmax of L-Methionine,[1]; iv,161700 ng/mL
same,T1/2 (half-life) of L-Methionine,[1]; iv,1.9 h
same,Tmax of L-Methionine,[1]; iv,0.50 h
same,Mean Plasma Concentrations of L-Methionine,"[1]; iv, 0 h",132.6 ng/mL
same,Mean Plasma Concentrations of L-Methionine,"[1]; iv, 0.03 h",132.6 ng/mL
same,Mean Plasma Concentrations of L-Methionine,"[1]; iv, 0.25 h",146.5 ng/mL
same,Mean Plasma Concentrations of L-Methionine,"[1]; iv, 0.5 h",161.7 ng/mL
same,Mean Plasma Concentrations of L-Methionine,"[1]; iv, 1 h",76.1 ng/mL
same,Mean Plasma Concentrations of L-Methionine,"[1]; iv, 2 h",45.4 ng/mL
same,Mean Plasma Concentrations of L-Methionine,"[1]; iv, 4 h",23.2 ng/mL
same,Mean Plasma Concentrations of L-Methionine,"[1]; iv, 6 h",10.7 ng/mL
same,AUC(0-inf) of L-Methionine,[1]; po,450.2 µg·h/mL
same,Cmax of L-Methionine,[1]; po,47200 ng/mL
same,T1/2 (half-life) of L-Methionine,[1]; po,9.9 h
same,Tmax of L-Methionine,[1]; po,2.00 h
same,Mean Plasma Concentrations of L-Methionine,"[1]; po, 0 h",7.8 ng/mL
same,Mean Plasma Concentrations of L-Methionine,"[1]; po, 0.5 h",33.1 ng/mL
same,Mean Plasma Concentrations of L-Methionine,"[1]; po, 1 h",32.0 ng/mL
same,Mean Plasma Concentrations of L-Methionine,"[1]; po, 2 h",47.2 ng/mL
same,Mean Plasma Concentrations of L-Methionine,"[1]; po, 4 h",22.2 ng/mL
same,Mean Plasma Concentrations of L-Methionine,"[1]; po, 6 h",18.8 ng/mL
same,Mean Plasma Concentrations of L-Methionine,"[1]; po, 12 h",12.6 ng/mL
same,effect on oxidative stress-induced ototoxicity and nephrotoxicity associated with cisplatin,[2],effectively prevent
same,dosage reported safe for chronic administration,[3]; adult,20 g/day
same,side-effects in human studies,[3]; most human studies,no side-effects
